Reference: PubChem BioAssay AID296 (DTP/NCI, 2004)
Values joined by “and” are separate entries in the source; they are usually repeats but may differ in a detail not shown here. Equal values may be shown once. Inconclusive results are not listed.

System: MX-1 breast xenograft, nude mice, tumor weight T/C
Experiment: NCI In Vivo Anticancer Drug Screen. Data for tumor model Human Mammary Carcinoma MX-1 Xenograft (intrarenal inoculation) in NU/NU Swiss (nude) mice
Conditions: endpoint: mean tumor weight change, higher = larger tumour
In short: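 Mice carrying the implanted tumor receive either test agent or vehicle. Tumor size or survival is then recorded for both groups. Results are stated as the treated-to-control quotient.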

[1] = dose: 8.0 mg/kg/injection, schedule: Q04DX003 (sc), vehicle: saline
[2] = dose: 300.0 mg/kg/injection, schedule: Q04DX003 (sc), vehicle: saline with Tween-80
[3] = dose: 600.0 mg/kg/injection, schedule: Q04DX003 (sc), vehicle: saline with Tween-80
[4] = dose: 300.0 mg/kg/injection, schedule: Q04DX003 (sc), vehicle: Klucel (hydroxypropylcellulose) (HPC)
[5] = dose: 600.0 mg/kg/injection, schedule: Q04DX003 (sc), vehicle: Klucel (hydroxypropylcellulose) (HPC)
[6] = dose: 1200.0 mg/kg/injection, schedule: Q04DX003 (sc), vehicle: Klucel (hydroxypropylcellulose) (HPC)
[7] = dose: 2400.0 mg/kg/injection, schedule: Q04DX003 (sc), vehicle: Klucel (hydroxypropylcellulose) (HPC)
[8] = dose: 300.0 mg/kg/injection, schedule: Q04DX003 (sc), vehicle: saline
[9] = dose: 600.0 mg/kg/injection, schedule: Q04DX003 (sc), vehicle: saline
[10] = dose: 1200.0 mg/kg/injection, schedule: Q04DX003 (sc), vehicle: saline
[11] = dose: 4.0 mg/kg/injection, schedule: Q01DX010 (sc), vehicle: saline
[12] = dose: 2400.0 mg/kg/injection, schedule: Q04DX003 (sc), vehicle: saline

## Cc1c(N)nc([C@H](CC(N)=O)NC[C@H](N)C(N)=O)nc1C(=O)N[C@H](C(=O)N[C@H](C)[C@@H](O)[C@H](C)C(=O)N[C@H](C(=O)NCCc1nc(-c2nc(C(=O)NCCC[S+](C)C)cs2)cs1)[C@@H](C)O)C(OC1OC(CO)C(O)C(O)C1OC1OC(CO)C(O)C(OC(N)=O)C1O)c1cnc[nH]1 (some centres undefined)
dose: 4.0 mg/kg/injection, schedule: Q01DX010 (ip), vehicle: saline
  T/C: 86 % of control
dose: 6.25 mg/kg/injection, schedule: Q04DX003 (sc), vehicle: saline
  T/C: 93 % of control
dose: 8.0 mg/kg/injection, schedule: Q01DX010 (ip), vehicle: saline
  T/C: 55 % of control
[1]
  T/C: 87 % of control
dose: 13.3 mg/kg/injection, schedule: Q04DX003 (sc), vehicle: saline
  T/C: 67 % of control
dose: 13.33 mg/kg/injection, schedule: Q04DX003 (ip), vehicle: saline
  T/C: 101 % of control and 120 % of control
dose: 13.33 mg/kg/injection, schedule: Q04DX003 (sc), vehicle: saline
  T/C: 45 % of control
dose: 16.0 mg/kg/injection, schedule: Q01DX010 (ip), vehicle: saline
  T/C: 49 % of control
dose: 16.0 mg/kg/injection, schedule: Q04DX003 (sc), vehicle: saline
  T/C: 46 % of control
dose: 25.0 mg/kg/injection, schedule: Q04DX003 (sc), vehicle: saline
  T/C: 50 % of control
dose: 26.65 mg/kg/injection, schedule: Q04DX003 (ip), vehicle: saline
  T/C: 71 % of control
dose: 26.66 mg/kg/injection, schedule: Q04DX003 (ip), vehicle: saline
  T/C: 89 % of control
dose: 32.0 mg/kg/injection, schedule: Q01DX010 (ip), vehicle: saline
  T/C: 53 % of control
dose: 32.0 mg/kg/injection, schedule: Q04DX003 (sc), vehicle: saline
  T/C: 15 % of control
dose: 37.5 mg/kg/injection, schedule: Q04DX003 (sc), vehicle: saline
  T/C: 80 % of control
dose: 50.0 mg/kg/injection, schedule: Q04DX003 (sc), vehicle: saline
  T/C: 46 % of control
dose: 53.3 mg/kg/injection, schedule: Q04DX003 (ip), vehicle: saline
  T/C: 63 % of control
dose: 53.3 mg/kg/injection, schedule: Q04DX003 (sc), vehicle: saline
  T/C: 49 % of control
dose: 53.33 mg/kg/injection, schedule: Q04DX003 (ip), vehicle: saline
  T/C: 59 % of control
dose: 53.33 mg/kg/injection, schedule: Q04DX003 (sc), vehicle: saline
  T/C: 106 % of control
dose: 75.0 mg/kg/injection, schedule: Q04DX003 (sc), vehicle: saline
  T/C: 30 % of control
dose: 106.6 mg/kg/injection, schedule: Q04DX003 (ip), vehicle: saline
  T/C: 88 % of control
dose: 106.6 mg/kg/injection, schedule: Q04DX003 (sc), vehicle: saline
  T/C: 51 % of control
dose: 106.66 mg/kg/injection, schedule: Q04DX003 (sc), vehicle: saline
  T/C: 64 % of control
dose: 150.0 mg/kg/injection, schedule: Q04DX003 (sc), vehicle: saline
  T/C: 17 % of control

## O=C([O][Bi]([c]1ccccc1)[c]1ccccc1)c1ccccc1
dose: 25.0 mg/kg/injection, schedule: Q04DX003 (ip), vehicle: Klucel (hydroxypropylcellulose) (HPC)
  T/C: 91 % of control
dose: 50.0 mg/kg/injection, schedule: Q04DX003 (ip), vehicle: Klucel (hydroxypropylcellulose) (HPC)
  T/C: 78 % of control
dose: 100.0 mg/kg/injection, schedule: Q04DX003 (ip), vehicle: Klucel (hydroxypropylcellulose) (HPC)
  T/C: 64 % of control

## O=CC(S)CO (centres undefined)
dose: 100.0 mg/kg/injection, schedule: Q04DX003 (sc), vehicle: suspension in saline
  T/C: 151 % of control

## [I][Hg][CH2]C1COC([CH2][Hg][I])CO1 (centres undefined)
[2]
  T/C: 86 % of control
[3]
  T/C: 77 % of control
dose: 1200.0 mg/kg/injection, schedule: Q04DX003 (sc), vehicle: saline with Tween-80
  T/C: 115 % of control
dose: 2400.0 mg/kg/injection, schedule: Q04DX003 (sc), vehicle: saline with Tween-80
  T/C: 82 % of control

## O=c1[nH]c(=O)n(C2OC(CO)C(O)C2O)cc1F (centres undefined)
dose: 9.38 mg/kg/injection, schedule: Q01DX010 (sc), vehicle: saline
  T/C: 21 % of control

## O=C1C=C[C@H](O)[C@@]2(CO)O[C@@H]12
dose: 3.12 mg/kg/injection, schedule: Q04DX003 (sc), vehicle: saline with Tween-80
  T/C: 106 % of control
dose: 6.25 mg/kg/injection, schedule: Q04DX003 (sc), vehicle: saline with Tween-80
  T/C: 85 % of control

## Cc1cc(C)c(-c2cc(O)c(C)cc2O)c(C)c1
[4]
  T/C: 588 % of control
[5]
  T/C: 557 % of control
[6]
  T/C: 388 % of control
[7]
  T/C: 420 % of control

## c1ccc([C@H]2CN3CCSC3=N2)cc1
dose: 15.0 mg/kg/injection, schedule: Q04DX003 (sc), vehicle: saline
  T/C: 80 % of control
dose: 30.0 mg/kg/injection, schedule: Q04DX003 (sc), vehicle: saline
  T/C: 71 % of control
dose: 60.0 mg/kg/injection, schedule: Q04DX003 (sc), vehicle: saline
  T/C: 75 % of control

## Nc1cccc(=O)[nH]1
[8]
  T/C: 92 % of control
[9]
  T/C: 95 % of control
[10]
  T/C: 102 % of control

## CCCCCCCCCCCCSC1=C(Cl)C(=O)C(OC)=C(OC)C1=O
[2]
  T/C: 47 % of control
[3]
  T/C: 77 % of control

## c1ccc([Te][Te]c2ccccc2)cc1
dose: 75.0 mg/kg/injection, schedule: Q04DX003 (ip), vehicle: saline with Tween-80
  T/C: 117 % of control
dose: 150.0 mg/kg/injection, schedule: Q04DX003 (ip), vehicle: saline with Tween-80
  T/C: 80 % of control
dose: 300.0 mg/kg/injection, schedule: Q04DX003 (ip), vehicle: saline with Tween-80
  T/C: 91 % of control

## C1OC1CN1CCN(CC2CO2)CC1 (centres undefined)
dose: 8.0 mg/kg/injection, schedule: Q01DX010 (sc), vehicle: suspension in saline
  T/C: 289 % of control
dose: 16.0 mg/kg/injection, schedule: Q01DX010 (sc), vehicle: saline
  T/C: 8 % of control and 33 % of control
dose: 16.0 mg/kg/injection, schedule: Q01DX010 (sc), vehicle: suspension in saline
  T/C: 98 % of control

## CN1N=C(N)c2cn(C3OC(COP(=O)(O)O)C(O)C3O)c3ncnc1c23 (centres undefined)
dose: 25.0 mg/kg/injection, schedule: Q01DX010 (sc), vehicle: water
  T/C: -92 % of control and -76 % of control
dose: 50.0 mg/kg/injection, schedule: Q01DX010 (sc), vehicle: water
  T/C: -91 % of control and -75 % of control

## CCOC(=O)/N=[N+](\[O-])c1ccccc1
dose: 37.5 mg/kg/injection, schedule: Q04DX003 (ip), vehicle: saline with Tween-80
  T/C: 110 % of control

## S=P(N1CC1)(N1CC1)N1CC1
[11]
  T/C: -94 % of control

## O=Cc1ccc([N+](=O)[O-])s1
dose: 25.0 mg/kg/injection, schedule: Q01DX010 (sc), vehicle: saline with Tween-80
  T/C: 90 % of control
dose: 50.0 mg/kg/injection, schedule: Q01DX010 (sc), vehicle: saline with Tween-80
  T/C: 89 % of control
dose: 100.0 mg/kg/injection, schedule: Q01DX010 (sc), vehicle: saline with Tween-80
  T/C: 56 % of control

## Oc1c(Cl)cc(Cl)cc1C1N2CCCCC2C2c3cccn3-c3ccccc3N21 (centres undefined)
[4]
  T/C: 105 % of control
[5]
  T/C: 66 % of control
[6]
  T/C: 88 % of control
[7]
  T/C: 82 % of control

## NC(Cn1ccc(=O)c(O)c1)C(=O)O (centres undefined)
[8]
  T/C: 72 % of control
[10]
  T/C: 88 % of control
[12]
  T/C: 88 % of control

## CC1CN1C(=O)NCCCCCCNC(=O)N1CC1C (centres undefined)
dose: 5.0 mg/kg/injection, schedule: Q04DX003 (sc), vehicle: Klucel (hydroxypropylcellulose) (HPC)
  T/C: 21 % of control
dose: 40.0 mg/kg/injection, schedule: Q04DX003 (sc), vehicle: Klucel (hydroxypropylcellulose) (HPC)
  T/C: -86 % of control and -63 % of control

## O=NNc1ccccn1
dose: 1.0 mg/kg/injection, schedule: Q01DX010 (sc), vehicle: saline
  T/C: 78 % of control
dose: 2.0 mg/kg/injection, schedule: Q01DX010 (sc), vehicle: saline
  T/C: 86 % of control
dose: 3.13 mg/kg/injection, schedule: Q01DX010 (sc), vehicle: saline
  T/C: 20 % of control
[11]
  T/C: 163 % of control
dose: 6.25 mg/kg/injection, schedule: Q01DX010 (sc), vehicle: saline
  T/C: 50 % of control and 72 % of control
[1]
  T/C: 103 % of control
dose: 25.0 mg/kg/injection, schedule: Q01DX010 (sc), vehicle: saline
  T/C: 1 % of control
dose: 64.0 mg/kg/injection, schedule: Q01DX010 (sc), vehicle: saline
  T/C: -87 % of control

## Cc1ncc(CNC(=O)N(CCCl)N=O)c(N)n1
dose: 9.38 mg/kg/injection, schedule: Q04DX003 (sc), vehicle: saline
  T/C: 43 % of control
dose: 18.75 mg/kg/injection, schedule: Q04DX003 (sc), vehicle: saline
  T/C: 28 % of control

## OCC12COCN1COC2
[8]
  T/C: 80 % of control
[9]
  T/C: 102 % of control
[10]
  T/C: 109 % of control
[12]
  T/C: 122 % of control
